In ChEMBL document CHEMBL5653615 (J Biol Chem, 2013):
Calls of active or inactive are those of the source. The rule behind the calls is not given here.

Experiments:
[1] = target: T1, TGF-beta receptor type-1 (Homo sapiens) (UniProt P36897); test: Inhibition of human ALK5 at 18.6 nM by HotSpot assay relative to control
T1 sequence (whole entry): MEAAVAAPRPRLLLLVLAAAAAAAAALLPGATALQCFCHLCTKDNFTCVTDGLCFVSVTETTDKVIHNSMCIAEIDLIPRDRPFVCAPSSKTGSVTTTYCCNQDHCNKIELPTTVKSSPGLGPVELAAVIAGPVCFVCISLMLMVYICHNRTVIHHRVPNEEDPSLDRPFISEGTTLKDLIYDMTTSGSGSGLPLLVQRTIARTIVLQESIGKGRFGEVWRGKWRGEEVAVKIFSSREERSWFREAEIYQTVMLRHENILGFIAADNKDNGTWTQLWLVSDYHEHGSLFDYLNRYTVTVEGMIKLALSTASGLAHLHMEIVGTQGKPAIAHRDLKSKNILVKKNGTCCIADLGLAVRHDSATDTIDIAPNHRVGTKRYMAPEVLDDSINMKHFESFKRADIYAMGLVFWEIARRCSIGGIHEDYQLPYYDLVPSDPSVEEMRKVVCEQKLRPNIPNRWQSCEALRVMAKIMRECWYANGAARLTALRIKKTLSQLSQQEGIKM

[2] = target: Tyrosine-protein kinase CSK (Homo sapiens) (UniProt P41240); test: Inhibition of human CSK at 18.6 nM by HotSpot assay relative to control
Sequence of Tyrosine-protein kinase CSK (Homo sapiens) (P41240 2-450 limits assumed): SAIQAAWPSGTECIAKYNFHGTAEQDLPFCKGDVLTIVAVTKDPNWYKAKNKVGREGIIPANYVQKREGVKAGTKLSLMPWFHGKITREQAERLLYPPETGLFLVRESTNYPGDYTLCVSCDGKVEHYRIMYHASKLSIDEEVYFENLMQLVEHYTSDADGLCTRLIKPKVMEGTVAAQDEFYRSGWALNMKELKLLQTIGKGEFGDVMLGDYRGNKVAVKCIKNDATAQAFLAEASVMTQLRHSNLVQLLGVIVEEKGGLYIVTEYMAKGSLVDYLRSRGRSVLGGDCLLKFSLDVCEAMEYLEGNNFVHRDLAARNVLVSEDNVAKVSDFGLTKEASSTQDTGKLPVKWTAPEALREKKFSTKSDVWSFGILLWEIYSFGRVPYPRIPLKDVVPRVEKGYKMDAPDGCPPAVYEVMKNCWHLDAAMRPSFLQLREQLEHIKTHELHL

[3] = target: T2, Testis-specific serine/threonine-protein kinase 2 (Homo sapiens) (UniProt Q96PF2); test: Inhibition of human TSSK2 at 18.6 nM by HotSpot assay relative to control
T2 sequence (whole entry): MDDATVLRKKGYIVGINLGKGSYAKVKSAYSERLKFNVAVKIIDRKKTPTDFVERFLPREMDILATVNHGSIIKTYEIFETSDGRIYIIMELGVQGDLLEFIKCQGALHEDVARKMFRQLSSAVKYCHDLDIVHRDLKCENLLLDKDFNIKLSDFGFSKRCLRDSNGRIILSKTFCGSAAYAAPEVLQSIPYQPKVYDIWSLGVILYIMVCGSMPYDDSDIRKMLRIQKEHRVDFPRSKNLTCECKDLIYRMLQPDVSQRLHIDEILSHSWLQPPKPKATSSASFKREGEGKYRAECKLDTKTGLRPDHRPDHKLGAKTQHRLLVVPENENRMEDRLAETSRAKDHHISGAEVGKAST

[4] = target: T3, Protein kinase C zeta type (Homo sapiens) (UniProt Q05513); test: Inhibition of human PKCzeta at 500 nM by HotSpot assay relative to control
T3 sequence (whole entry): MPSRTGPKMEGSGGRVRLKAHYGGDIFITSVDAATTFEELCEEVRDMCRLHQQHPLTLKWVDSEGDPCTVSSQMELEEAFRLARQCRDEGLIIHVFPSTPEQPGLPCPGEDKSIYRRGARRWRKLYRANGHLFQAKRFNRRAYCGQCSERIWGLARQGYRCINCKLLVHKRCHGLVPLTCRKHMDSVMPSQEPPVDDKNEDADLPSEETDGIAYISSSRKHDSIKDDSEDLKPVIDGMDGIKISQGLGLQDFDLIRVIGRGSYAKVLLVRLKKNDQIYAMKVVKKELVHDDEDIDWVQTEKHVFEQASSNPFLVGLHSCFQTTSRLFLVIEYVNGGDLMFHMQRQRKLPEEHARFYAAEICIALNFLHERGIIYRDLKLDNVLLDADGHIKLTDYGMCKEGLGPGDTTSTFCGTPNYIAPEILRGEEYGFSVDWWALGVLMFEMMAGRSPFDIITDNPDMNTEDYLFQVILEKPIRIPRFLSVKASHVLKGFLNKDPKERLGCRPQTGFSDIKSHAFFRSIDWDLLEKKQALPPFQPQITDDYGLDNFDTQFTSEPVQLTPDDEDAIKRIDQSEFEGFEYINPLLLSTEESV

[5] = Inhibition of tri-phosphorylated human Insulin receptor (978 to 1283 residues) C981S mutant kinase domain expressed in baculovirus infected Sf9 cells incubated for 1 hr by [gamma-33P]ATP assay
[6] = target: Calcium/calmodulin-dependent protein kinase kinase 1 (Homo sapiens) (UniProt Q8N5S9); test: Inhibition of human CAMKK1 at 1.82 nM by HotSpot assay relative to control
Sequence of Calcium/calmodulin-dependent protein kinase kinase 1 (Homo sapiens) (Q8N5S9 whole entry, looked up): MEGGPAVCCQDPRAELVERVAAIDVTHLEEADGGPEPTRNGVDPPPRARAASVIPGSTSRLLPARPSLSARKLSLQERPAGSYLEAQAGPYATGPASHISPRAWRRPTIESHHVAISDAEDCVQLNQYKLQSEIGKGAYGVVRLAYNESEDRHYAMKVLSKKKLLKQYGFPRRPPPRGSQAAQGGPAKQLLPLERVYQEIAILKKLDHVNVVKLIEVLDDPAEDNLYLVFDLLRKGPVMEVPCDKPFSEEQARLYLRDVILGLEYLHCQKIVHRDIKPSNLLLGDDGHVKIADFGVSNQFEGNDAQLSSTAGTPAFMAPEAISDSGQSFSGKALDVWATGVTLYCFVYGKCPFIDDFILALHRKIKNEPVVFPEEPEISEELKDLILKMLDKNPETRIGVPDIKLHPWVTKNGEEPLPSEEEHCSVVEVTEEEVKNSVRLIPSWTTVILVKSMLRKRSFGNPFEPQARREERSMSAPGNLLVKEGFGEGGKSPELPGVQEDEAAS

[7] = target: Ribosomal protein S6 kinase beta-2 (Homo sapiens) (UniProt Q9UBS0); test: Inhibition of human RPS6KB2 at 1.82 nM by HotSpot assay relative to control
[8] = target: T4, Lymphokine-activated killer T-cell-originated protein kinase (Homo sapiens) (UniProt Q96KB5); test: Inhibition of human TOPK at 1.82 nM by HotSpot assay relative to control
T4 sequence (whole entry): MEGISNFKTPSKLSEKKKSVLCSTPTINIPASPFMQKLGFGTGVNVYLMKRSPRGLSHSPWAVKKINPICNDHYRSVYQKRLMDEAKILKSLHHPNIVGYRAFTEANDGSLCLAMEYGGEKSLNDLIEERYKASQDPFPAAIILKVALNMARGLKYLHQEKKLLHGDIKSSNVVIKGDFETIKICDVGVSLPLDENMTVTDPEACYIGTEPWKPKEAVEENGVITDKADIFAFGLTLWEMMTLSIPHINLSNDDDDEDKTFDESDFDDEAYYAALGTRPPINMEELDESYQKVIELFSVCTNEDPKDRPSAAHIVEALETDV

[9] = target: Serine/threonine-protein kinase N2 (Homo sapiens) (UniProt Q16513); test: Inhibition of human PRK2 at 1.82 nM by HotSpot assay relative to control
Sequence of Serine/threonine-protein kinase N2 (Homo sapiens) (Q16513 whole entry, looked up): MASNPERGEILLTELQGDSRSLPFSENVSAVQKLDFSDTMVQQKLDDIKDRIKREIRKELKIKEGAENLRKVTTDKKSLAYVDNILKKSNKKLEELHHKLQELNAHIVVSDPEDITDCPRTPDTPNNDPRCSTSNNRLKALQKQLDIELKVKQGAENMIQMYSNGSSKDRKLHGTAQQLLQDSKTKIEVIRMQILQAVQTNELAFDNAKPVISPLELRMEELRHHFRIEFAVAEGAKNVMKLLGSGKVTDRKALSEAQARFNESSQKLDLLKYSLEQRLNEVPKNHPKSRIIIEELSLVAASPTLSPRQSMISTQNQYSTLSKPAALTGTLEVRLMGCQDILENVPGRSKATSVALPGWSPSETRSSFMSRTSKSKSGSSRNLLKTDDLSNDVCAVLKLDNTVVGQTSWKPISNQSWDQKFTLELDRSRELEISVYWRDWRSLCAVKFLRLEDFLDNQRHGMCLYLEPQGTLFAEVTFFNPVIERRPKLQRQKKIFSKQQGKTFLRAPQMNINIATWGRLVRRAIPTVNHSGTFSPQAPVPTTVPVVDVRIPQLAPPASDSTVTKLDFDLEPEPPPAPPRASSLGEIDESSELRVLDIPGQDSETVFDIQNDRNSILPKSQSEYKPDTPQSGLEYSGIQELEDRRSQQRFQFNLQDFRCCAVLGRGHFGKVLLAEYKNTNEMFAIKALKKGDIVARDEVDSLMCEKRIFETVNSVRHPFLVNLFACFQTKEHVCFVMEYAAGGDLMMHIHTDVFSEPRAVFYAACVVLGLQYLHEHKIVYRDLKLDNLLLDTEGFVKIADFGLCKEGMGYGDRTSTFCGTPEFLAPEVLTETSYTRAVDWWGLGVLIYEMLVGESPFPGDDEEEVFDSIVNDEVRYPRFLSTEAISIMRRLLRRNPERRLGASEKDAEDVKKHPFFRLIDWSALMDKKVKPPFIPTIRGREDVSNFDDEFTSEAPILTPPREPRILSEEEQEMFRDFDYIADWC

[10] = target: SRSF protein kinase 1 (Homo sapiens) (UniProt Q96SB4); test: Inhibition of human SRPK1 at 1.82 nM by HotSpot assay relative to control
Sequence of SRSF protein kinase 1 (Homo sapiens) (Q96SB4 whole entry): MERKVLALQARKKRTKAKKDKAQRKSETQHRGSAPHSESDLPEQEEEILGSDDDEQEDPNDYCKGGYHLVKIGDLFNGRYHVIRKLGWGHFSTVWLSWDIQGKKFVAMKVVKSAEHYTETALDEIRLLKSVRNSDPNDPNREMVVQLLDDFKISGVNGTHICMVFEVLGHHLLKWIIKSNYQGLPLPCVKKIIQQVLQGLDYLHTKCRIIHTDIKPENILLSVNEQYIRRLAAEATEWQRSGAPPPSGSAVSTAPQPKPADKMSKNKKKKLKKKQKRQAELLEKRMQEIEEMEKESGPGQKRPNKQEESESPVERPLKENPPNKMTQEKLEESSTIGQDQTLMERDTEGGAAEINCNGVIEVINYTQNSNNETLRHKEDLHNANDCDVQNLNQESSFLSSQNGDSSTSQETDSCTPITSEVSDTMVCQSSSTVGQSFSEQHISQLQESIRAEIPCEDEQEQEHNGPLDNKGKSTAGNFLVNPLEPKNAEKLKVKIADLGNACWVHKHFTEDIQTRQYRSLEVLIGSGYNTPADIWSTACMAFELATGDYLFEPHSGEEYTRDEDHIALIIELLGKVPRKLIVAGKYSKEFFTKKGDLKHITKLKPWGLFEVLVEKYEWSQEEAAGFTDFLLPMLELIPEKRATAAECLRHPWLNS

[11] = target: T5, Testis-specific serine/threonine-protein kinase 1 (Homo sapiens) (UniProt Q9BXA7); test: Inhibition of human TSSK1 at 1.82 nM by HotSpot assay relative to control
T5 sequence (whole entry): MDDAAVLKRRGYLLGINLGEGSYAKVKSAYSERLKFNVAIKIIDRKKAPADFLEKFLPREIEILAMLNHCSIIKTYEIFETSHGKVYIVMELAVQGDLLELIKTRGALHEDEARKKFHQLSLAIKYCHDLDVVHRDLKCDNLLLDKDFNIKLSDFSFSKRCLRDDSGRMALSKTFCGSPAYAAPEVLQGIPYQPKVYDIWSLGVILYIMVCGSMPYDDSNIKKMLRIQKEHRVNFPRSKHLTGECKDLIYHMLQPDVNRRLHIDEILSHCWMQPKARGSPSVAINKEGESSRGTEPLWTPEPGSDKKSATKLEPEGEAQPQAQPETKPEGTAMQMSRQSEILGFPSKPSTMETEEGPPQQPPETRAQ

[12] = target: T2, Testis-specific serine/threonine-protein kinase 2 (Homo sapiens); test: Inhibition of human TSSK2 at 1.82 nM by HotSpot assay relative to control
[13] = target: Serine/threonine-protein kinase WNK2 (Homo sapiens) (UniProt Q9Y3S1); test: Inhibition of human WNK2 at 1.82 nM by HotSpot assay relative to control
Sequence of Serine/threonine-protein kinase WNK2 (Homo sapiens) (Q9Y3S1 whole entry): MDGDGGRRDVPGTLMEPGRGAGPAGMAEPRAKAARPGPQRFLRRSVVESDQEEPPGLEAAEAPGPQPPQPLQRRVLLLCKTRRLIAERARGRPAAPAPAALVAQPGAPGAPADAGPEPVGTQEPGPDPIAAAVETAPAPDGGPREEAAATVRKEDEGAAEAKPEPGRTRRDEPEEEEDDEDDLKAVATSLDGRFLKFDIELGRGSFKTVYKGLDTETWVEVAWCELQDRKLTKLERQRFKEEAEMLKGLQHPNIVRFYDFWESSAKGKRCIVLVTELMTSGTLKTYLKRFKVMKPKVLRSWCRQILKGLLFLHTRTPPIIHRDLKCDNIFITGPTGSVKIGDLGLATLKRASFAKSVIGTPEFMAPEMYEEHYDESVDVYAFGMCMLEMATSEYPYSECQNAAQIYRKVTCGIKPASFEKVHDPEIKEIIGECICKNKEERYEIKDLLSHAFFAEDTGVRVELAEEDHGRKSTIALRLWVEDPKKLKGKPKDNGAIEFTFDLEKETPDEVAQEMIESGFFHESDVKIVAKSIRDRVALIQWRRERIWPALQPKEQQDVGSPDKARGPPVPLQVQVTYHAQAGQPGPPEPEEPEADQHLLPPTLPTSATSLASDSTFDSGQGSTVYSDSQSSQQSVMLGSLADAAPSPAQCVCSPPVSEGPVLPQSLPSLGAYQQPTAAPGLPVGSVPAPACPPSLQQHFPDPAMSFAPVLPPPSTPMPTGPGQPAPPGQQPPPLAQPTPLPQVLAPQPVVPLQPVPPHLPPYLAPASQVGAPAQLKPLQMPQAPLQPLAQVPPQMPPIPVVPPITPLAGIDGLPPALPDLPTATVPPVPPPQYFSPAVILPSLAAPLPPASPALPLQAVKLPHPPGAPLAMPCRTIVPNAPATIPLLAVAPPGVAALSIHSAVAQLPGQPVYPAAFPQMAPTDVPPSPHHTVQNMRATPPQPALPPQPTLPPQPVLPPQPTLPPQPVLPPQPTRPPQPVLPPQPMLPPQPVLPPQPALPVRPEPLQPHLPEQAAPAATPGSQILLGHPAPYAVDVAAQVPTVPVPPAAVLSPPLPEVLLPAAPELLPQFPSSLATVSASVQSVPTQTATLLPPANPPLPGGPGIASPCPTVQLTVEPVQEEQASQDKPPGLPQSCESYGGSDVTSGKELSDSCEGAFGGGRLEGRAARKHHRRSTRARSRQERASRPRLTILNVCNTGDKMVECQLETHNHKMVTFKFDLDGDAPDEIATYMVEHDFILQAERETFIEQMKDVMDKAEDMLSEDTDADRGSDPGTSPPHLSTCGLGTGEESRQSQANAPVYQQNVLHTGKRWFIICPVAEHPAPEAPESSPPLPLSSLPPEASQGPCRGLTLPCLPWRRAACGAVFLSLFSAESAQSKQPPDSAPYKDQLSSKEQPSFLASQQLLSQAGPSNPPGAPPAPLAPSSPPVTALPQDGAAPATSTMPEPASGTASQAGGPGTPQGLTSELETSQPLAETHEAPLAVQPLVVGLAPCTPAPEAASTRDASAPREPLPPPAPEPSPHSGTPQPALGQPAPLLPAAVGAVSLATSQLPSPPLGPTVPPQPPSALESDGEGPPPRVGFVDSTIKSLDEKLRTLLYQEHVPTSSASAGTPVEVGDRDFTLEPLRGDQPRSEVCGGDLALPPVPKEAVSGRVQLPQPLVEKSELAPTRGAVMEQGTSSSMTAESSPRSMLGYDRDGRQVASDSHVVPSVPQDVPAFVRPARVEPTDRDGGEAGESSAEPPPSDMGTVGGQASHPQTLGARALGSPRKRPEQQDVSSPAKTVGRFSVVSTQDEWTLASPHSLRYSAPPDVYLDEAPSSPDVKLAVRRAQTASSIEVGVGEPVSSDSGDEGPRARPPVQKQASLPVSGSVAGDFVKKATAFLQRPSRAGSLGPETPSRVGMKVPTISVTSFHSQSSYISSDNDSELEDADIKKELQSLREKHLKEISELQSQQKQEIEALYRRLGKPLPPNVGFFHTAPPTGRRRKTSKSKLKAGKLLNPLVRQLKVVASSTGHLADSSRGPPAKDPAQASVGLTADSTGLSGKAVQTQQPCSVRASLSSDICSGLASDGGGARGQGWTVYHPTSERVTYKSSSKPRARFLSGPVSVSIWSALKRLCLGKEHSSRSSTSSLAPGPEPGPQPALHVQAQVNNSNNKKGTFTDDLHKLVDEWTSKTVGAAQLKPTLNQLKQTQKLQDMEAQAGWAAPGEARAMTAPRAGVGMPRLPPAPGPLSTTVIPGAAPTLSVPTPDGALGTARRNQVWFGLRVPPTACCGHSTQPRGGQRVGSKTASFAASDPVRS

Compound: C[C@]1(O)C[C@@H](c2nc(-c3ccc4ccc(-c5ccccc5)nc4c3)c3c(N)nccn32)C1
- inhibition [1]: 2.47%
- inhibition [2]: 3.89%
- inhibition [3]: -3.7%

Compound: Nc1n[nH]c2nnc(-c3c(-c4ccccc4)nn4ccccc34)cc12
- inhibition [4]: 16.1%

Compound: Oc1n[nH]c2nnc(-c3c(-c4ccccc4)nn4ccccc34)cc12
- inhibition [5]: inactive

Compound: C[C@@]1(C(=O)Nc2ccc(F)nc2)CCCN1c1nc(Nc2cc(C3CC3)n[nH]2)c2cccn2n1
- inhibition [6]: -5.91%
- inhibition [7]: -0.77%
- inhibition [8]: 8.44%
- inhibition [9]: -0.34%
- inhibition [10]: -4.32%
- inhibition [11]: 4.11%
- inhibition [12]: -1.46%
- inhibition [13]: -1.14%
